In ChEMBL document CHEMBL1201862, “PubChem BioAssay data set” (2004):
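Tested at 5 concentrations; 48 h exposure; 96-well plates; endpoints linearly interpolated, else capped at highest concentration. GI50 is the concentration that inhibits growth by half.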 Calls of active or inactive are those of the source. Cut-off read from the data, not from the text of the source: active = GI50 up to about 1.1 µM and inactive = higher.

Experiments:
Experiment in all cases: NCI tumour cell line growth inhibition, 48 h
SNB-19 = tested on: SNB-19
NCI-H23 = tested on: NCI-H23
UACC-257 = tested on: UACC-257
SN12C = tested on: SN12C
SF-268 = tested on: SF-268
TK-10 = tested on: TK-10
MOLT-4 = tested on: MOLT-4
SNB-75 = tested on: SNB-75
SK-MEL-28 = tested on: SK-MEL-28
OVCAR-3 = tested on: OVCAR-3
HCC 2998 = tested on: HCC 2998
HL-60 = tested on: HL-60
SK-MEL-2 = tested on: SK-MEL-2
IGROV-1 = tested on: IGROV-1
NCI-H460 = tested on: NCI-H460
SK-MEL-5 = tested on: SK-MEL-5
SF-295 = tested on: SF-295
K562 = tested on: K562
NCI/ADR-RES = tested on: NCI/ADR-RES
786-0 = tested on: 786-0

Measured: GI50

CC(C)CC(NC(=O)C(O)C(N)Cc1ccccc1)C(=O)O (stereo not given)
inactive: SNB-19 > 100 µM | NCI-H23 > 100 µM | UACC-257 > 100 µM | SN12C > 100 µM | SF-268 > 100 µM | TK-10 > 100 µM | MOLT-4 > 100 µM | SNB-75 > 100 µM | SK-MEL-28 > 100 µM | OVCAR-3 > 100 µM | HCC 2998 > 100 µM | HL-60 > 100 µM | SK-MEL-2 > 100 µM | IGROV-1 > 100 µM | NCI-H460 > 100 µM | SK-MEL-5 > 100 µM | SF-295 > 100 µM | K562 > 100 µM | NCI/ADR-RES > 100 µM | 786-0 > 100 µM

Cc1ccc(C(=O)N/N=C(\N=N\c2cccc([N+](=O)[O-])c2)c2ccc(N(CCC#N)CCC#N)cc2C)cc1
inactive: SNB-19 53.7 µM | NCI-H23 20.5 µM | UACC-257 10.6 µM | SN12C 46.6 µM | SF-268 33.6 µM | TK-10 45.1 µM | MOLT-4 24 µM | SNB-75 21.1 µM | SK-MEL-28 > 46.8 µM | OVCAR-3 2.32 µM | HCC 2998 30.9 µM | HL-60 12.9 µM | SK-MEL-2 26.9 µM | IGROV-1 19.2 µM | NCI-H460 29 µM | SK-MEL-5 13.6 µM | SF-295 26.9 µM | K562 22.8 µM | NCI/ADR-RES 34.8 µM | 786-0 34.4 µM

CCOP(=O)(CCCC(O)CNc1nc(N)nc(Cl)c1/N=N/c1ccc(Cl)cc1)OCC (stereo not given)
inactive: SNB-19 10.6 µM | NCI-H23 12.1 µM | UACC-257 5.38 µM | SN12C 5.15 µM | SF-268 4.27 µM | TK-10 3.67 µM | MOLT-4 3.24 µM | SNB-75 3.29 µM | SK-MEL-28 8.22 µM | OVCAR-3 5.73 µM | HCC 2998 15.4 µM | HL-60 1.75 µM | SK-MEL-2 12.2 µM | IGROV-1 11.9 µM | NCI-H460 11.1 µM | SK-MEL-5 4.66 µM | SF-295 7.46 µM | K562 4.63 µM | NCI/ADR-RES 10.4 µM | 786-0 5.27 µM

CC1(C)N=C(C2CCCN2C(=O)OCc2ccccc2)OC1=O (stereo not given)
inactive: SNB-19 > 100 µM | NCI-H23 > 100 µM | UACC-257 > 100 µM | SN12C > 100 µM | SF-268 > 100 µM | TK-10 > 100 µM | MOLT-4 > 100 µM | SNB-75 > 100 µM | SK-MEL-28 > 100 µM | OVCAR-3 > 100 µM | HCC 2998 > 100 µM | HL-60 > 100 µM | SK-MEL-2 > 100 µM | IGROV-1 > 100 µM | NCI-H460 > 100 µM | SK-MEL-5 > 100 µM | SF-295 > 100 µM | K562 > 100 µM | NCI/ADR-RES > 100 µM | 786-0 > 100 µM

COc1cc(/C=C/C(=O)Oc2ccc(NC(C)=O)cc2)ccc1C(=O)OCc1ccccc1
inactive: SNB-19 52.7 µM | NCI-H23 > 89.9 µM | UACC-257 > 100 µM | SN12C > 92.5 µM | SF-268 56.6 µM | TK-10 > 95.9 µM | MOLT-4 > 85.3 µM | SNB-75 20 µM | SK-MEL-28 > 100 µM | OVCAR-3 > 100 µM | HCC 2998 > 100 µM | HL-60 > 72.3 µM | SK-MEL-2 53.1 µM | IGROV-1 67.5 µM | NCI-H460 > 73.1 µM | SK-MEL-5 > 100 µM | SF-295 40.6 µM | K562 > 100 µM | NCI/ADR-RES > 100 µM | 786-0 39.6 µM

CCCCCCC/C=C1\CCC(CN(C)C)C1=O (stereo not given)
inactive: SNB-19 16.9 µM | NCI-H23 16.4 µM | UACC-257 15.1 µM | SN12C 9.1 µM | SF-268 17.4 µM | TK-10 7.48 µM | MOLT-4 2.47 µM | SNB-75 18.5 µM | SK-MEL-28 16.9 µM | OVCAR-3 9.38 µM | HCC 2998 17.7 µM | HL-60 3.02 µM | SK-MEL-2 15.9 µM | IGROV-1 19.1 µM | NCI-H460 19.1 µM | SK-MEL-5 18.7 µM | SF-295 16.3 µM | K562 2.83 µM | NCI/ADR-RES 2.61 µM | 786-0 1.76 µM
